Data taken from paper PMC4674085, “Towards Prebiotic Catalytic Amyloids Using High Throughput Screening” (PLoS ONE, 2015).

Columns and labels:
[1] = X-ray fiber diffraction of aligned fibrils; format: physicochemical; conditions: washed pellets dried between glass capillaries, room temperature
Procedure: The samples were centrifuged, the pellet resuspended (ultrapure water or 10 mM NaOAc pH 4) and centrifuged again. The washed pellets were resuspended in a minimal amount of water and 4 μl of the suspension were pipetted between the melted ends of two glass capillaries, which were then left to dry overnight in a sealed petri dish. The dried material was placed in an X-ray beam (Rigaku MicroMax-007HF) at room temperature for a 20 min exposure and diffraction data was collected on a Mar345 image plate detector.
Table A and associated data: Biophysical characterization of library […]
1. Fold increase in ThT ﬂuorescence over background.
2. CD spectra classiﬁed as follows: (β+) has minimum near 217 nm, (β++) has minimum near 217 nm and a maximum near 197 nm, (−) signal too weak to interpret, (?) spectra not typical of any secondary […]
3. The peak position in amide I region is given in cm−1. […]
within the typical range of stretching frequencies forβ-structure (between dashed lines at 1638 cm−1 and […]
4. (+) ﬁbrils present or (−) absent in EM micrographs.
5. Diﬀraction images recorded for the aligned ﬁbrils of 5 diﬀerent peptides (see materials and methods).

[2] = Activity screen of the amyloid library, 4NPA hydrolysis in plate reader (Fig 1); format: biochemical; conditions: for hydrolytic activity in the screen: condition 2: pH 7.3 with ZnCl2, 40 μM crude peptide, 250 μM zinc(II), A400
Procedure: The most common assay for hydrolytic activity in enzymes is with the chromogenic substrate p-nitrophenyl acetate (4NPA). Therefore, 4NPA was chosen permitting a direct comparison of the hits from the screen with natural enzymes. Using an absorbance plate reader, we screened the activity of the amyloid library at a peptide concentration of 40 μM, fibrillized at pH 4 or 7.3 and in the presence of divalent cations (250 μM Co^2+, Cu^2+, Mg^2+, Mn^2+, Ni^2+, or Zn^2+) (Fig 1). […] Imidazole is known to catalyze 4NPA hydrolysis under these conditions via an acyl intermediate and it was used as a standard to compare the measured activity of the peptides from plate to plate.
Fig 1 Activity screens of peptide amyloids in various conditions. The hydrolysis rates of 4NPA measured for each of the peptide amyloids (in columns) are shown as a ratio to the negative control (buffer) with color-codes as indicated at the bottom of the Figure. A color code from black (rate ratio of 1.0) to light blue (1.5) to red (19) is used. Activities below the negative control are indicated with smaller disks and color-coded from light grey to black. Occasionally observed negative reaction rates are indicated by small blue disks. The peptide amyloids were tested in a total of 46 conditions of which 19 conditions are shown here (in rows). The peptides are numbered according to Table 2, including a short nomenclature highlighting only the variable residues (e.g. the peptide Ac-YVDVHVSV-CONH2 is abbreviated DHS). The conditions are sorted top-down with the highest observed activity at the top. A detailed list of the conditions tested are shown in Table B in S1 File, while below a compressed introduction to the different conditions is listed: (2) pH 7.3 with ZnCl2 (control for 33 without heating), (33) condition 2 and heated to 95°C for 1 h prior to screening, (46) condition 2 and screened in 50% DMSO, (39) condition 2 and screened with 4.75 M NaCl, (40) condition 2 and screened with 0.2 M MgCl2, (45) condition 2 and screened in 90% EtOH, (38) condition 2 and screened with 0.2 M NaCl, (30) pH 7.3 with ZnCl2 and 1 M Na2SO4, (35) pH 7.3 and screened in 4.75 M NaCl, (34) pH 7.3 and screened in 0.5 M NaCl, (37) pH 7.3 and screened in 2 M MgCl2, (27) pH 7.3 with ZnCl2 and 0.2 M MgCl2, (6) pH 7.3 with NiCl2, (4) pH 7.3 with CoCl2, (1) pH 7.3 without other additives, (41) condition 2 and screened in 2 M MgCl2, (5) pH 7.3 with CuCl2, (36) pH 7.3 and screened in 0.2 M MgCl2 and (8) pH 4.0 without other additives.
The reaction buffer consisted of the same buffer as the fibrillization buffer without ZnCl2 and with 1.33 mM 4NPA prepared from a 100 mM stock in CH3CN. The samples of the amyloid library were mixed 1:3 with the reaction buffer yielding 40 μM peptide and, when present 250 μM zinc(II). The absorbance measurements were performed in a BMG Pherastar platereader with a 400 nm band-pass filter (10 nm bandwidth) in 96-well Nunclon Delta surface plates or 384-well Greiner Bio-One non-bind black μclear plates.
Table B: Amyloid growth and measurement conditions.
Growth = Measurement1 Growth⁄= Measurement1
Divalent2 pH3 T (◦C) Additive Divalent pH T (◦C) Additive
1. The conditions for ﬁbrillization and 4NPA assay are the same for 1-32 except that the 4NPA assay was always at 30 ◦C and the divalent concentration was one-fourth as high. For condition 33, the sample was heated to 95 ◦C for 1 hour prior to the 4NPA assay and for 34-46 the samples were ﬁbrillized in condition 1 or 2 and then transferred to the new conditions with additive just for the 4NPA assay.
2. Divalent concentration is 1 mM for growth and 250µM for 4NPA assay.
3. Grown and measured in 50 mM buﬀer: HEPES at pH 7.3, NaOAc at pH 4.0, or phthalate at pH 2.2.

[3] = Aggregation at pH 4 from soluble material left after 100,000 g centrifugation; format: physicochemical; conditions: 40 μM purified peptide, pH 4, soluble material in supernatant of 100,000 g centrifugation

X-ray diffraction of aligned fibrils [1]	Substance	hydrolytic activity in the screen [2]	also measured
cross-β	Ac-YVAVHVHV-NH2 [Peptide 27, Ac-YVAVHVHV-CONH2]	highest activity	activity in the screen under extreme conditions ([2]; high organic solvent content (50% DMSO, 90% EtOH) or high salt (4.75 M NaCl, 1 M Na2SO4), with ZnCl2): often significant
	Ac-YVDVHVDV-NH2 [Peptide 25, Ac-YVDVHVDV-CONH2]		relative activity in the screen in 50% DMSO ([2]; condition 46: fibrillized at pH 7.3 with ZnCl2, screened in 50% DMSO, also activity above positive control (200 μM imidazole)): increased relative activity compared to the same condition without DMSO
	Ac-YVHVHVDV-NH2 [Peptide 21, Ac-YVHVHVDV-CONH2]		aggregation behaviour at pH 4 [3]: remained soluble for several days
cross-β	Ac-YVHVHVHV-NH2 [Peptide 8, Ac-YVHVHVHV-CONH2]	highest activity	
	Ac-YVHVHVSV-NH2 [Peptide 11, Ac-YVHVHVSV-CONH2]	highest activity	
	Ac-YVSVHVHV-NH2 [Peptide 9, Ac-YVSVHVHV-CONH2]	highest activity	
